# Measurements: PMC4471902, “Block of NMDA receptor channels by endogenous neurosteroids: implications for the agonist induced conformational states of the channel vestibule” (Scientific Reports, 2015)
# Values joined by “and” are separate entries in the source; they are usually repeats but may differ in a detail not shown here. Equal entries are not always repeated. Structures can show the parent of a compound that is named as a salt.
# Assays:
# [1] = system: non-transfected HEK293 cells; assay: Membrane capacitance measurement of steroid association with and exit from the membrane; type: cell-based, Human
# From the text: Membrane capacitance was estimated by examining the integrated capacitive current (sampled at 30 kHz at 10 kHz filter cutoff frequency) evoked by depolarizing or hyperpolarizing voltage pulses from −60 mV to +30 mV for 3 ms delivered at 200 Hz.
# [2] = Steroid concentration in the cytoplasmic membrane (erythrocyte membrane ghosts, HPLC-MS); type: physicochemical, rat
# Protocol: All animal manipulations were conducted in accordance with the Animal Protection Code of the Czech Republic and corresponding directives of the European Community Council (2010/63/EC). Experiments were approved by the Animal Care and Use Committee of the Institute of Physiology of the Academy of Sciences of the Czech Republic. Blood was collected from one adult Wistar rat, heparinized, and spun down at 1,000 g for 10 min. Cells were washed once with PBS, briefly spun down and the pellet resuspended in a minimum amount of ECS. Cells were counted and 200 μl aliquots (~3*10^9 cells) were taken for the experiment. Cell membranes were prepared by 30 min erythrocyte lysis in distilled water followed by centrifugation at 25,000 g for 10 min and resuspension in 200 μl of ECS. Cell membranes were incubated for 2 min with PA-S solution in ECS at the final volume of 500 μl, followed by a spin down at 20,000 g for 2 min. Supernatants were taken for liquid chromatography-mass spectrometry analysis (HPLC-MS). Solution of PA-S without membranes served as a control. […]
# PA-S concentration was assessed in ECS to which steroid was added from its 20 mM stock solution ([PA-S]ECS) and in the supernatant of a solution containing er ythroc yte membranes ([PA-S]EC S+M) (see Methods). The concentration of steroid in the membrane ([PA-S]M) was calculated from the difference of [PA-S] in the control solution ([PA-S] EC S) and that in the supernatant containin g m embranes ([PA-S]EC S+M) accordin g to [PA-S]M = ([PA-S]ECS - [PA-S]EC S+M) · Vsolu tion /Vmembrane (where V denotes volume). Data points were fitted to the linear equation of the following form y = 38.8 * x; The partition coeffici ent for P A-S was calculated […]
# 7.4) determined using the online program CHEMICALIZE (http://www.chemicalize.org/).
# Data points represent the mean of two independent measurements. The values of the partition coefficient (log D) of PA-S in the erythrocyte cytoplasmic membrane was calculated assuming 136 μm2 as the mean surface area of a rat erythroc yte and 4 nm as the mean membrane thickness. […]
structure (smiles),measurement,setting,value
"CC(=O)[C@H]1CC[C@H]2[C@@H]3CC[C@@H]4C[C@H](OS(=O)(=O)O)CC[C@]4(C)[C@H]3CC[C@]12C [PA-S, 20-oxo-5β-pregnan-3α-yl sulfate]",fast dissociation time constant from the membrane,[1],≤ 1 ms
same,koff (rate of steroid dissociation from the membrane),[1],≥ 1000 s⁻¹
same,capacitance increase during the steroid application,"[1]; PA-S 150 μM for 1 s, attached cells",~ 3%
same,capacitance return after steroid washout As,"[1]; PA-S 150 μM, attached cells",41 ± 2%
same,capacitance return after steroid washout τf,"[1]; PA-S 150 μM, attached cells",< 5 ms
same,capacitance return after steroid washout τs,"[1]; PA-S 150 μM, attached cells",222 ± 8 ms and 244 ms
same,capacitance change after PA-S washout τ,"[1]; lifted cells, only fast component resolved",< 5 ms
same,equilibrium surface density S,[2]; calculated for the PA-S IC50 value of 55.7 µM,4.32 10−9 M m −2
same,flux Jout of steroid from the membrane into the aqueous phase,[2]; product of [PA-S]membrane and koff,at least 4.3 μM s^−1 m^−2
same,slope of linear fit of [PA-S]M versus aqueous concentration,[2]; y = slope * x,38.8
